Results taken from PubChem BioAssay AID504605 (National Center for Advancing Translational Sciences (NCATS), 2011).

System: mouse liver microsomes, LC-MS/MS, half-life
Assay: Inhibitors of 12-hLO: Mouse Liver Microsome Stability Profiling
Details: at 1 µM; hits give high values
From the text: Assay Provider: Holman, T.R., University of California, Santa Cruz Grant #: MH08128301 Screening Center PI: Austin, C.P. Screening Center: NIH Chemical Genomics Center [NCGC] Human lipoxygenase 12hLO is a member of the closely related lipoxygenase family of enzymes which catalyze the site-specific oxidation of arachidonic acid to various hormone precursor molecules and as such is a candidate for drug development in a variety of disease areas, such as cancer and inflammation. After qHTS, hits were confirmed in follow-up assays, and leads were optimized through SAR. The resulting lead compound was further characterized through a battery ADME-Tox experiments. These assay and this assay describes its mouse liver microsome stability. Mouse liver microsomes are created through broken up endoplasmic reticulum from mouse liver. These liver microsomes contain many drug metabolizing enzymes, such as Cytochome P-450s and flavin-containing monooxygenases. Because metabolism is major way of drug clearance, this is an important result.
1uM of compound in incubated in mouse liver microsome; the reference compound is ketanserin. Compounds are incubated at 37 degrees C for different time periods: 0, 5, 15, 30, 45, and 60 minutes. Samples are analyzed with LC-MS/MS.

- half-life: 9 min
Compound: CC(=O)NC(c1cccs1)c1cc(Br)c2cccnc2c1O (stereo unspecified)
